For the assay, the target named is T1, human histamine H4 receptor (Homo sapiens, UniProt Q9H3N8).
T1 construct: expressed in transfected cells; host or cells: SK-N-MC cells or COS7 cells, transiently transfected with pH4R; cell membranes
T1 sequence (Q9H3N8 whole entry): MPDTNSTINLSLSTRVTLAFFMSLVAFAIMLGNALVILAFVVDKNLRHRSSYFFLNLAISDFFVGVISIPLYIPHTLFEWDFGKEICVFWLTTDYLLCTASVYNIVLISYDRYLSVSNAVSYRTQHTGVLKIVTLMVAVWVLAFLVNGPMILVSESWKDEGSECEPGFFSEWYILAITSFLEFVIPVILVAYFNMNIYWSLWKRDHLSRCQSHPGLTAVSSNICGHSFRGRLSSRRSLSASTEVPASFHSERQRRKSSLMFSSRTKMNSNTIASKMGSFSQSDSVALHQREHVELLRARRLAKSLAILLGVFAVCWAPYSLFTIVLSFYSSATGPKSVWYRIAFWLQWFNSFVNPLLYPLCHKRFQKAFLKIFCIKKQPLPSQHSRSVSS
Description: Binding Assay on Recombinant Human Histamine H4 Receptor. The settings on record: competition binding vs 3H-histamine (5 nM, KD 5 nM), membranes of SK-N-MC or COS7 cells transfected with human H4R; Cheng-Prusoff; average of results obtained. How it is done: Binding Assay on Recombinant Human Histamine H4 Receptor
SK-N-MC cells or COS7 cells were transiently transfected with pH4R and grown in 150 cm^2 tissue culture dishes. Cells were washed with saline solution, scraped with a cell scraper and collected by centrifugation (1000 rpm, 5 min). Cell membranes were prepared by homogenization of the cell pellet in 20 mM Tris-HCl with a polytron tissue homogenizer for 10 sec at high speed. Homogenate was centrifuged at 1000 rpm for 5 min at 4° C. The supernatant was then collected and centrifuged at 20,000×g for 25 min at 4° C. The final pellet was resuspended in 50 mM Tris-HCl. Cell membranes were incubated with ^3H-histamine (5-70 nM) in the presence or absence of excess histamine (10,000 nM). Incubation occurred at room temperature for 45 min. Membranes were harvested by rapid filtration over Whatman GF/C filters and washed 4 times with ice-cold 50 mM Tris HCl. Filters were then dried, mixed with scintillant and counted for radioactivity. SK-N-MC or COS7 cells expressing human histamine H4 receptor were used to measure the affinity of binding of other compounds and their ability to displace ^3H-ligand binding by incubating the above-described reaction in the presence of various concentrations of inhibitor or compound to be tested. For competition binding studies using ^3H-histamine, Ki values were calculated, based on an experimentally determined KD value of 5 nM and a ligand concentration of 5 nM, according to Y. C.
Regarding `CN1CCN(c2ccnc(-c3ccc(-c4cccs4)s3)c2)CC1` [compound 145], the Ki (as a rule, a measure of affinity in units of concentration, obtained from inhibition or displacement) turned out to be 268 nM.

As to `CN1CCN(c2ncnc(-c3ccccn3)n2)CC1` [compound 139, 2-(4-Methyl-piperazin-1-yl)-4-pyridin-2-yl-[1,3,5]triazine], the Ki is 857 nM.

Take `Cc1ccc(-c2ncnc(N3CCN(C)CC3)n2)cc1F` [compound 3, 2-(3-Fluoro-4-methyl-phenyl)-4-(4-methyl-piperazin-1-yl)-[1,3,5]triazine]: the inhibition constant (Ki) was 22 nM.

For the molecule `CN1CCN(c2ccnc(-c3cccc(-c4ccc(C(=O)N5CCOCC5)cc4)c3)c2)CC1` [compound 63], the Ki is not below 10000 nM.

As for `Cc1cc(-c2ncnc(N3CCN(C)CC3)n2)ccc1F` [compound 115, 2-(4-Fluoro-3-methyl-phenyl)-4-(4-methyl-piperazin-1-yl)-[1,3,5]triazine], the Ki was determined as 111 nM.

Take `CN1CCN(c2ncnc(-c3ccncc3)n2)CC1` [compound 20, 2-(4-Methyl-piperazin-1-yl)-4-pyridin-4-yl-[1,3,5]triazine]: the Ki was 950 nM.

In the case of `CN1CCN(c2ncnc(-c3ccc(Cl)cc3)n2)CC1` [compound 13, 2-(4-Chloro-phenyl)-4-(4-methyl-piperazin-1-yl)-[1,3,5]triazine], the Ki was determined as 10 nM.

For the molecule `CN(C)C1CCN(c2ccnc(-c3ccsc3)c2)C1` (stereo not shown) [compound 42], the Ki is 767 nM.

As for `CN1CCC(N(C)c2ccnc(-c3ccsc3)c2)C1` (stereo not shown) [compound 40], the Ki was 867 nM.

On to `CN1CCN(c2ncnc(-c3ccc(F)c(F)c3)n2)CC1` [compound 5, 2-(3,4-Difluoro-phenyl)-4-(4-methyl-piperazin-1-yl)-[1,3,5]triazine], for which the Ki was found to be 33 nM.

As to `Cc1ccc(F)cc1-c1ncnc(N2CCN(C)CC2)n1` [compound 123, 2-(5-Fluoro-2-methyl-phenyl)-4-(4-methyl-piperazin-1-yl)-[1,3,5]triazine], the Ki is 60 nM.

`COc1cscc1-c1ncnc(N2CCN(C)CC2)n1` [compound 130, 2-(4-Methoxy-thiophen-3-yl)-4-(4-methyl-piperazin-1-yl)-[1,3,5]triazine]: the Ki stood at 643 nM.

`CN1CCN(c2ncnc(-c3cccnc3)n2)CC1` [compound 19, 2-(4-Methyl-piperazin-1-yl)-4-pyridin-3-yl-[1,3,5]triazine]: the Ki came to 172 nM.

For the molecule `Cc1ccc(-c2cc(N3CCN(C)CC3)ccn2)cc1Cl` [compound 37], the Ki stood at 65 nM.

As to `CN1CCN(c2ncnc(-c3cccc(F)c3)n2)CC1` [compound 7, 2-(3-Fluoro-phenyl)-4-(4-methyl-piperazin-1-yl)-[1,3,5]triazine], the Ki came out at 87 nM.

Take `CN1CCN(c2ncnc(-c3ccc4ccccc4c3)n2)CC1` [compound 117, 2-(4-Methyl-piperazin-1-yl)-4-naphthalen-2-yl-[1,3,5]triazine]: the Ki was more than 10000 nM.

The values are drawn from patent US8022209B2, “Substituted nitrogen-containing heteroaryl derivatives useful as modulators of the histamine H4 receptor” (Janssen Pharmaceutica NV, priority 2007, dated 2011).
